From patent US20180243289A1, “[…] COMPOUNDS FOR TREATING AGITATION” (Concert Pharmaceuticals, Inc., priority 2015, published 2018)
Structures can show the parent of a compound that is named as a salt.

Experiments:
[1] = biological target: T1, CYP2D6 (Homo sapiens, UniProt P10635); assay: Metabolic stability in CYP2D6 SUPERSOMES; format: in vitro ADME; settings: recombinant CYP2D6 SUPERSOMES, 50 pmol/mL CYP2D6 SUPERSOMES, 1 μM test compound, 2 mM NADPH, pH 7.4, 37° C., 0-30 min, read-out: t1/2 ± SD, calculated half-life in SUPERSOMES
T1 construct: purchased GenTest (Woburn, Mass., USA)
T1 sequence (P10635 whole entry): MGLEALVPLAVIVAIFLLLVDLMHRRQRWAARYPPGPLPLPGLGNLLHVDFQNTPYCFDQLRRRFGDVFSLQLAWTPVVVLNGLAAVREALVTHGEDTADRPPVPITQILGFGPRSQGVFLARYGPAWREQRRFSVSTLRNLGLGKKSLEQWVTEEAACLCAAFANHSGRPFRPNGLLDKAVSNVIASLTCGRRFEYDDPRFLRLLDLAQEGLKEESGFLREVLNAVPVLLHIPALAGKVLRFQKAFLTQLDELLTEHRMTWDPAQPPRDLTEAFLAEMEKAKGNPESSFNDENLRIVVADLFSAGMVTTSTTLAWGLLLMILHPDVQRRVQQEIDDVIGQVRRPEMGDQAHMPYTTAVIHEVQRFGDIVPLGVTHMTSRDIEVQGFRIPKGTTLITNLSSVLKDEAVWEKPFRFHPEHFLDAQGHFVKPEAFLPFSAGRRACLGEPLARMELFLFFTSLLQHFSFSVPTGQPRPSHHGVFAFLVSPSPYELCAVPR
Experimental: Human CYP2D6 SUPERSOMES™ were purchased from GenTest (Woburn, Mass., USA). 7.5 mM stock solutions of test compounds (Compounds 100, 102, and the ethyl ether analog of dextromethorphan (“dextroethorphan”) were prepared in DMSO. The 7.5 mM stock solutions were diluted to 50 μM in acetonitrile (ACN). The 1000 pmol/mL CYP2D6 supersomes were diluted to 62.5 pmol/mL in 0.1 M potassium phosphate buffer, pH 7.4, containing 3 mM MgCl2. The diluted SUPERSOMES™ were added to wells of a 96-well deep-well polypropylene plate in triplicate. 10 μL of the 50 μM test compound was added to the supersomes and the mixture was pre-warmed for 10 minutes. Reactions were initiated by addition of pre-warmed NADPH solution. The final reaction volume was 0.5 mL and contained 50 pmol/mL CYP2D6 SUPERSOMES™, 1 μM test compound, and 2 mM NADPH in 0.1 M potassium phosphate buffer, pH 7.4, and 3 mM MgCl2. The reaction mixtures were incubated at 37° C. and 50 μL aliquots were removed at 0, 5, 10, 20, and 30 minutes and added to shallow-well 96-well plates which contained 50 μL of ice-cold ACN with internal standard to stop the reactions. The plates were stored at 4° C. for 20 minutes after which 100 μL of water was added to the wells of the plate before centrifugation to pellet precipitated proteins. Supernatants were transferred to another 96-well plate and analyzed for amounts of parent remaining by LC-MS/MS using an Applied Bio-systems API 4000 mass spectrometer.
The in vitro half-life (t1/2) for each of the test compounds was calculated from the slopes of the linear regression of % parent remaining (ln) vs incubation time relationship: in vitro t1/2=0.693/k, where k=−[slope of linear regression of % parent remaining (ln) vs incubation time]. Data analysis was performed using Microsoft Excel Software.

[2] = Metabolic stability using human liver microsomes; format: in vitro ADME; settings: for half-life at 1 μM / Change over non-deuterated compound (Table 3): Table 3 experiment; for half-life at 1 μM: read-out: t1/2 ± SD, calculated half-life in human liver microsomes (Table 3); for Change over non-deuterated compound (Table 3): change of half-life in human liver microsomes vs dextroethorphan
Experimental: Human liver microsomes (20 mg/mL) were obtained from Xenotech, LLC (Lenexa, Kans.). β-nicotinamide adenine dinucleotide phosphate, reduced form (NADPH), magnesium chloride (MgCl2), and dimethyl sulfoxide (DMSO) were purchased from Sigma-Aldrich.
7.5 mM stock solutions of test compounds were prepared in DMSO. The 7.5 mM stock solutions were diluted to 50 μM in acetonitrile (ACN). The 20 mg/mL human liver microsomes were diluted to 1.25 mg/mL (1 mg/mL final) in 0.1 M potassium phosphate buffer, pH 7.4, containing 3 mM MgCl2. The diluted microsomes (375 μL) were added to wells of a 96-well polypropylene plate in triplicate. 10 μL of the 50 μM test compound was added to the microsomes and the mixture was pre-warmed for 10 minutes. Reactions were initiated by addition of 125 μL of pre-warmed NADPH solution. The final reaction volume was 0.5 mL and contained 1.0 mg/mL human liver microsomes, 1 μM test compound, and 2 mM NADPH in 0.1 M potassium phosphate buffer, pH 7.4, and 3 mM MgCl2. The reaction mixtures were incubated at 37° C., and 50 μL aliquots were removed at 0, 5, 10, 20, and 30 minutes and added to shallow 96-well plates which contained 50 μL of ice-cold ACN with internal standard to stop the reactions. The plates were stored at 4° C. for 20 minutes after which 100 μL of water was added to the wells of the plate before centrifugation to pellet precipitated proteins. Supernatants were transferred to another 96-well plate and analyzed for amounts of parent remaining by LC-MS/MS using an Applied Bio-systems API 4000 mass spectrometer. 7-ethoxy coumarin was used as a positive control.
The in vitro t1/2s for test compounds were calculated from the slopes of the linear regression of % parent remaining (ln) vs incubation time relationship:
in vitro t1/2=0.693/k, where k=−[slope of linear regression of % parent remaining(ln) vs incubation time]
Data analysis was performed using Microsoft Excel Software.

[3] = 1.0 mg/mL human liver microsomes, 1 μM test compound, 2 mM NADPH, pH 7.4, 37° C.

Question: Which half-life at 1 μM [1] does the source give for [2H]C([2H])([2H])N1CC[C@@]23CCCC[C@@H]2[C@@H]1Cc1ccc(OC([2H])([2H])C([2H])([2H])[2H])cc13 [Compound 100, (+)-3-(Ethoxy-d5)-17-(methyl-d3)-(9α,13α,14α)-morphinan hydrochloride] here?
Answer: 51.3 ± 3.7 min

Question: And the half-life at 1 μM [2, 3]?
Answer: 59.2 ± 1.7 min

Question: What about the “Change over non-deuterated compound (Table 3)” value [2] of the same molecule?
Answer: 109%

Question: For [2H]C([2H])([2H])C([2H])([2H])Oc1ccc2c(c1)[C@]13CCCC[C@@H]1[C@H](C2)N(C)CC3 [Compound 104, (+)-3-(Ethoxy-d5)-17-methyl-(9α,13α,14α)-morphinan hydrochloride], which half-life at 1 μM [1] is on record?
Answer: 49.1 ± 4.1 min

Question: What about the half-life at 1 μM [2, 3] of the same molecule?
Answer: 59.1 ± 2.2 min

Question: And the “Change over non-deuterated compound (Table 3)” value [2]?
Answer: 109%

Question: With CCOc1ccc2c(c1)[C@@]13CCCC[C@H]1[C@@H](C2)N(C)CC3 [Dextroethorphan, (+)-3-ethoxy-17-methylmorphinan, reference compound] as the molecule, how does the half-life at 1 μM [1] read?
Answer: 10.3 ± 2.1 min

Question: And the half-life at 1 μM [2, 3]?
Answer: 28.3 ± 0.6 min

Question: And the “t1/2 ± SD, calculated half-life in human liver microsomes (Table 4)” value ([2]; 1.0 mg/mL human liver microsomes, 1 μM test compound, 2 mM NADPH, pH 7.4, 37° C., Table 4 experiment)?
Answer: 37.1 ± 5.6 min

Question: For COc1ccc2c(c1)[C@]13CCCC[C@@H]1[C@H](C2)N(C)CC3 [Dextromethorphan, (+)-3-methoxy-17-methyl-(9α,13α,14α)-morphinan, reference compound], which half-life at 1 μM [1] is on record?
Answer: 1.7 ± 0.3 min
